The values that follow come from ChEMBL document CHEMBL5550160, “Leveraging a rationally designed veliparib-based anilide eliciting anti-leukemic effects for the design of pH-responsive polymer nanoformulation” (Eur J Med Chem, 2024).

The target in one experiment is Histone deacetylase 3 (Homo sapiens, UniProt O15379). In words: Inhibition of HDAC3 (unknown origin) using p53 residues 379 to 382 [RHKK(Ac)] as fluorogenic substrate assessed as residual activity at 4.12 x 10^-8M (reference value: 103.08%). The following applies: dose 4.12 10^-8M.
The target in experiment [1] is Histone deacetylase 4 (Homo sapiens) (UniProt P56524). Description: Inhibition of HDAC4 (unknown origin) assessed as residual activity at 1.37 x 10^-8M (reference value: 98.90%). The note with it: dose 1.37 10^-8M.
The target in experiment [2] is T1, Protein deacetylase HDAC6 (Homo sapiens) (UniProt Q9UBN7).
T1 sequence (whole entry): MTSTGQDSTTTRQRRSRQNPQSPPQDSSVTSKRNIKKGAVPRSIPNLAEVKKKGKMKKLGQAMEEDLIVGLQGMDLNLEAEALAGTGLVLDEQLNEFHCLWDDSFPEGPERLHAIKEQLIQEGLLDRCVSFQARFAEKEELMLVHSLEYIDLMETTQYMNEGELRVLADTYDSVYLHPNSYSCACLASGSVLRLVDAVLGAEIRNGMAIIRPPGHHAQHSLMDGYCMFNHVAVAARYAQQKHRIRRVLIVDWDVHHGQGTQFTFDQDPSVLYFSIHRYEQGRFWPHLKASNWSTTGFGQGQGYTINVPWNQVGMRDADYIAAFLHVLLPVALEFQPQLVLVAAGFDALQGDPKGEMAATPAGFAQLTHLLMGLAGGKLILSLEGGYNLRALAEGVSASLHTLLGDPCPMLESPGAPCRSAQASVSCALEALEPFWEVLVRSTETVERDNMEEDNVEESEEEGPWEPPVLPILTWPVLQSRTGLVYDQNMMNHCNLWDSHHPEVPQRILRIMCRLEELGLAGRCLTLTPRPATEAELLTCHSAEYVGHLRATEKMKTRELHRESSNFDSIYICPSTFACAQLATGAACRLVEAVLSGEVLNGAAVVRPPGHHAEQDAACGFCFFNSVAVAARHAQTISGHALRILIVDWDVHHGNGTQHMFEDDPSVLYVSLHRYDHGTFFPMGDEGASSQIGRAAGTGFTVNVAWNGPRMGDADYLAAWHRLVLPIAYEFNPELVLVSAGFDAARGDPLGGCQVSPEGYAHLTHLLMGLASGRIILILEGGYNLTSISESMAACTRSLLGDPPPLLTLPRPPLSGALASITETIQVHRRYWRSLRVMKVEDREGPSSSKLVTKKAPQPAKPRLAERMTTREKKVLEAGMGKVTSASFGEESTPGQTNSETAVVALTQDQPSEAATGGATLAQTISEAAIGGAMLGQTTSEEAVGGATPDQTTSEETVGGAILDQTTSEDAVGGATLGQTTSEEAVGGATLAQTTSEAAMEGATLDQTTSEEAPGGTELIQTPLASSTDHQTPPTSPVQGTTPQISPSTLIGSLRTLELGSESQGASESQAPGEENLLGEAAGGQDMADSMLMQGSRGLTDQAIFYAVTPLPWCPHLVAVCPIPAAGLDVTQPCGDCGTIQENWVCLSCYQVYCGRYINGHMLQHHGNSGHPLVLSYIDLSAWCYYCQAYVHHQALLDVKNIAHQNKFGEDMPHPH
In words: Inhibition of HDAC6 (unknown origin) using p53 residues 379 to 382 [RHKK(Ac)] as fluorogenic substrate assessed as residual activity at 3.70 x 10^-7M (reference value: 101.06%). The following applies: dose 3.7 10^-7M.

Experiment [3] has as its target T2, Histone deacetylase 8 (Homo sapiens) (UniProt Q9BY41).
T2 sequence (whole entry): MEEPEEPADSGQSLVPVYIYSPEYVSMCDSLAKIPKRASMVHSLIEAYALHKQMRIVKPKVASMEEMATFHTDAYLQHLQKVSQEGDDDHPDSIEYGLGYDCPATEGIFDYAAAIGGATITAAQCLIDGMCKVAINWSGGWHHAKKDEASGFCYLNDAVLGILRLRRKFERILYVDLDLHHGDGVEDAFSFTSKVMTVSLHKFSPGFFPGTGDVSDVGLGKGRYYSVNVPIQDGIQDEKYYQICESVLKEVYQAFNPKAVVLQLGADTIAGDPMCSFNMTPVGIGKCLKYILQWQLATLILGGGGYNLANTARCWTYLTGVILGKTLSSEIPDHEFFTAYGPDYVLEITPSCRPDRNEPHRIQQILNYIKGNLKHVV
Description: Inhibition of HDAC8 (unknown origin) assessed as residual activity at 1.37 x 10^-8M (reference value: 100%). The note with it: dose 1.37 10^-8M.

For experiment [4], the target named is Histone deacetylase 9 (Homo sapiens) (UniProt Q9UKV0). Description: Inhibition of HDAC9 (unknown origin) assessed as residual activity at 1.1 x 10^-6M (reference value: 97.55%). The note with it: dose 1.1 10^-6M.
Experiment [5] addresses T3, Polyamine deacetylase HDAC10 (Homo sapiens) (UniProt Q969S8).
T3 sequence (whole entry): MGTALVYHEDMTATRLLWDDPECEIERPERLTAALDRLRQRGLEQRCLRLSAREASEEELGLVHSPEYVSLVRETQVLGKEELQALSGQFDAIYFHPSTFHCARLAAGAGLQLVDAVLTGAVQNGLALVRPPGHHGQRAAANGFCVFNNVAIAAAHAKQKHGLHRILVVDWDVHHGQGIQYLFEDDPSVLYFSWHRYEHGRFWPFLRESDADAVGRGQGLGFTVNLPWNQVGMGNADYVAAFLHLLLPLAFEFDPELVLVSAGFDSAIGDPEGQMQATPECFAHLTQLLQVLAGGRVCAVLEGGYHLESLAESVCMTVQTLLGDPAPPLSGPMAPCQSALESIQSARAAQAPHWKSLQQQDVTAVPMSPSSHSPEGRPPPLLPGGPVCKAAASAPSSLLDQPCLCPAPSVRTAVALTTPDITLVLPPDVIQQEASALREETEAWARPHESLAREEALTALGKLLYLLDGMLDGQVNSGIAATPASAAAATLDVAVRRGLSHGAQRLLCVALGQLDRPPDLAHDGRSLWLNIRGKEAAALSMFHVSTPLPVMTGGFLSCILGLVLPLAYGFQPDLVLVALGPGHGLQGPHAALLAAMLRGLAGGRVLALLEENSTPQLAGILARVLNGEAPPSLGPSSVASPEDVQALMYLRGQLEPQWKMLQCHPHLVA
Description: Inhibition of HDAC10 (unknown origin) assessed as residual activity at 3.33 x 10^-6M (reference value: 101.54%). The note with it: dose 3.33 10^-6M.

The target in another experiment is Histone deacetylase 2 (Homo sapiens, UniProt Q92769). In words: Inhibition of HDAC2 (unknown origin).
The subject of experiment [6] is HL-60. In words: Downregulation of HDAC2 protein expression in human HL-60 cells by Western blot analysis. In kind it is functional, cell-based. The following applies: dose 0.2-5 µM.
In experiment [7] the test system is HL-60. In words: Induction of cell cycle arrest in G0/G1 phase in human HL-60 cells at 0.5 to 1 times IC50 by PI staining based flow cytometry analysis. Format: functional.
Experiment [8] relates to HL-60. Description: Induction of apoptosis in human HL-60 cells assessed as disintegration of mitochondrial nuclear condensation at 0.5 to 1 times IC50 by DAPI staining based microscopic analysis. In kind it is functional, cell-based.

The structures appear in SMILES notation. The source made the active and inactive calls. The calls are words filed in the database; no cut-off is given here.

Chain of Histone deacetylase 2 (Q92769 whole entry): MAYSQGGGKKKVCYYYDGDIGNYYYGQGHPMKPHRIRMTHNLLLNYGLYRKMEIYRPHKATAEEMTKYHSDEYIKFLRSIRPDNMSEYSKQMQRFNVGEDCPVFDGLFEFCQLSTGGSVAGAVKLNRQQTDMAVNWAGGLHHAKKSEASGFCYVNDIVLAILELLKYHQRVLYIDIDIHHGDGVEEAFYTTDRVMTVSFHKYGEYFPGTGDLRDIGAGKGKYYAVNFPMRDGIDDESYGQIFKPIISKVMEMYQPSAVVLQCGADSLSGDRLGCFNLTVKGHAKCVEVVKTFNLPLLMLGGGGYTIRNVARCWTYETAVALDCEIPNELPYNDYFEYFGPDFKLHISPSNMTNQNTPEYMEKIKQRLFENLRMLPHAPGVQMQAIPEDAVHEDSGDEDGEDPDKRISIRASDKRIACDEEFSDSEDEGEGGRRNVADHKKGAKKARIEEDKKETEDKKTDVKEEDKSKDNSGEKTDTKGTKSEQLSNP
Chain of Histone deacetylase 4 (Homo sapiens) (P56524 whole entry): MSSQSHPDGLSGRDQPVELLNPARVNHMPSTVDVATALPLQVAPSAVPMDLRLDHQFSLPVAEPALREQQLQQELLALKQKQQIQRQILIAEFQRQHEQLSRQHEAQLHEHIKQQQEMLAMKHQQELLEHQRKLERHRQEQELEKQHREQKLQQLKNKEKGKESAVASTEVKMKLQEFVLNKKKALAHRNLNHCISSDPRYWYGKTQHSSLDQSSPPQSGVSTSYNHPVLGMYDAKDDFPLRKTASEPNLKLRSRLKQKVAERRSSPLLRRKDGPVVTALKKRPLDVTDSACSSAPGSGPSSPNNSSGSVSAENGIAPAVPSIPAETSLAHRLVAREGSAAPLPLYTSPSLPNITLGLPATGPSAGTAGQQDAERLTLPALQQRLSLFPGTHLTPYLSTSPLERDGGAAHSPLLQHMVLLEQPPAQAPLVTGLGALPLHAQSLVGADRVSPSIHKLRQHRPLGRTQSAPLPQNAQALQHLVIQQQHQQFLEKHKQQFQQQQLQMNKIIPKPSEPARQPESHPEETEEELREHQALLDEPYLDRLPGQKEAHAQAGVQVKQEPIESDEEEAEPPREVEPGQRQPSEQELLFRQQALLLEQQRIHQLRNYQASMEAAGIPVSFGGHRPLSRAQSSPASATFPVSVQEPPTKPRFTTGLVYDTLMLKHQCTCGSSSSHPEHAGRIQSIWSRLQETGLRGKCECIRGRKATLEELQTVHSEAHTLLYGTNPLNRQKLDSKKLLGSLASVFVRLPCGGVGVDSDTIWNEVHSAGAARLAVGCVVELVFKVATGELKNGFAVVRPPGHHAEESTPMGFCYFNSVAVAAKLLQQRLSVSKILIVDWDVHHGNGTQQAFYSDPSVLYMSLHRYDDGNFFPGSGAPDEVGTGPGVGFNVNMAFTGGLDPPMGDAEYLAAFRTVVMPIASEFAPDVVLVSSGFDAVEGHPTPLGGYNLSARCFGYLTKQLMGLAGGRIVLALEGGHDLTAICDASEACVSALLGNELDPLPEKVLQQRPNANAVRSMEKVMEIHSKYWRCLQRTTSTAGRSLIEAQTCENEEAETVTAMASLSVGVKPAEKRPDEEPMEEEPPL
Chain of Histone deacetylase 9 (Homo sapiens) (Q9UKV0 whole entry): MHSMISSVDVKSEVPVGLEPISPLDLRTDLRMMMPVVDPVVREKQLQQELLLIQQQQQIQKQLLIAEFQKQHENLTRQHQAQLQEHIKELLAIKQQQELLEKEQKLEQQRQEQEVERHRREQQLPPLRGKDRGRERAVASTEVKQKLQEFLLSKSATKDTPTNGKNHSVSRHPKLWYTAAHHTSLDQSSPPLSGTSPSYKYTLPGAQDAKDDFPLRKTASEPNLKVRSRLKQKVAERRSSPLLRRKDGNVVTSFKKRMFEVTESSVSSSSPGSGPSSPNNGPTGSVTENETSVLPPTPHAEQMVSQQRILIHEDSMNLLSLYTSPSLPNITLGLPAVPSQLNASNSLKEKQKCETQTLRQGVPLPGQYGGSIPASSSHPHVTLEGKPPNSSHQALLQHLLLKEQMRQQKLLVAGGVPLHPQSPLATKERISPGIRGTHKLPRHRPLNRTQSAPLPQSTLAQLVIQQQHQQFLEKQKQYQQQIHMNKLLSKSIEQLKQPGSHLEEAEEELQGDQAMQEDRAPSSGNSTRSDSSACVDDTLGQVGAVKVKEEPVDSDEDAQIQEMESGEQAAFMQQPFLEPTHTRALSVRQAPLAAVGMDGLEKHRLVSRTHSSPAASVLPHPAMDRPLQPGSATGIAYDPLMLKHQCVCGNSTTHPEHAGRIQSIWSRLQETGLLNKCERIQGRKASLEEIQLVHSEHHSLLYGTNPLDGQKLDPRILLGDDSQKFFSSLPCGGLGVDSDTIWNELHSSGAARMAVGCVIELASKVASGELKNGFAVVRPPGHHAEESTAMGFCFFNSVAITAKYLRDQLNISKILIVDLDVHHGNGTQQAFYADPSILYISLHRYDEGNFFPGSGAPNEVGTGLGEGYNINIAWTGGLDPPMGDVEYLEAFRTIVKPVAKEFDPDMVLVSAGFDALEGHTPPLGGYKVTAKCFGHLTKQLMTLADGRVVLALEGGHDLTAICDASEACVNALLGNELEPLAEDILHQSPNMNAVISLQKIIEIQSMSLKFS
Chain of Histone deacetylase 3 (O15379 whole entry, the tested form may be a part): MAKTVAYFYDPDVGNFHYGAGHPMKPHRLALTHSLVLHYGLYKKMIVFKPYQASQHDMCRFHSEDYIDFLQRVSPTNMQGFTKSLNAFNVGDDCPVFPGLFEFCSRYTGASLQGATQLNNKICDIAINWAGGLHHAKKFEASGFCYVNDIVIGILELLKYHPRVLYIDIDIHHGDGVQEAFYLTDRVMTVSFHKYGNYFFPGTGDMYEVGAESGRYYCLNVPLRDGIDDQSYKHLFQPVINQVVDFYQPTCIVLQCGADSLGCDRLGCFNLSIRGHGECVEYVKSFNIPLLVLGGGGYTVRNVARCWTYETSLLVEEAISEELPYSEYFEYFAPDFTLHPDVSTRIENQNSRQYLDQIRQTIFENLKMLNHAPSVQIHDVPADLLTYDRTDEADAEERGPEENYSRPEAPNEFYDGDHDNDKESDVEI

As for `NC(=O)c1cccc2[nH]c(-c3ccc(NCc4ccc(C(=O)Nc5ccccc5N)cc4)cc3)nc12`, the Activity stood at 91.1% at Histone deacetylase 3; 96.3% in experiment [1]; 101% in [2]; 104% in experiment [3]; 93% in [4]; 101% in experiment [5]. Also, the Activity result in the experiment on HL-60 [6] and in the experiment on HL-60 [7] was “Dose-Dependent Effect” throughout. The compound further had an IC50 against Histone deacetylase 2 of 147 nM. Further, the outcome in the experiment on HL-60 [8] was inactive.
